One assay deals with T1, hVKORL (Homo sapiens, UniProt Q8N0U8).
T1 sequence (Q8N0U8 1-176): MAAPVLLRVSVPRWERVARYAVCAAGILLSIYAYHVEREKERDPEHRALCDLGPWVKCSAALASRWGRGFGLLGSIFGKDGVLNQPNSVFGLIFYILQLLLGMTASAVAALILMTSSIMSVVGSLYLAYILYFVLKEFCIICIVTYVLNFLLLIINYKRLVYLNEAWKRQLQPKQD
The assay is described as follows: Cell-based activity assay.

A further assay deals with T2, purified TrVKORL (Takifugu rubripes, UniProt Q6TEK8).
T2 sequence (Q6TEK8 1-175): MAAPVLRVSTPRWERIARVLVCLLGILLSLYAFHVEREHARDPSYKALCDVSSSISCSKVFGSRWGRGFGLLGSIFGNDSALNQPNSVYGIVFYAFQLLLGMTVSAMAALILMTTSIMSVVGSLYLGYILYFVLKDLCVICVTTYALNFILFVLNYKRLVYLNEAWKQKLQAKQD
The assay is described as follows: Fluorometric activity assay of purified TrVKORL. It is filed as biochemical.

In a further assay the target is T3, purified hVKORL (Homo sapiens, UniProt Q8N0U8).
T3 sequence (Q8N0U8 1-176): T1 sequence (Q8N0U8 1-176)
The assay is described as follows: Fluorometric activity assay of purified hVKORL. The assay is classed as biochemical. As to conditions: IC50, purified and analyzed in LMNG, GSH, 250 nM enzyme, KO as substrate.

The target of assay [1] is purified complex of hVKOR and warfarin (Homo sapiens, UniProt Q9BQB6). Particulars: DTT as reductant.
Assay [2] concerns the target T4, Takifugu rubripes VKOR-like (TrVKORL) (Takifugu rubripes, UniProt Q6TEK8).
T4 sequence (Q6TEK8 1-175): T2 sequence (Q6TEK8 1-175)
The assay is described as follows: Cell-based activity assay.

These results are taken from paper PMC7484342 (Journal of molecular biology, 2020).

Chain of purified complex of hVKOR and warfarin (Q9BQB6 whole entry, one chain of several): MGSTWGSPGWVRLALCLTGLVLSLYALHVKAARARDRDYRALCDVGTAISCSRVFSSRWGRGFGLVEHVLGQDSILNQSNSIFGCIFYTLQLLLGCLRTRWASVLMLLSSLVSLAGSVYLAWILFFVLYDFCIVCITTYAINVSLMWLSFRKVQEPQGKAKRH

As usually defined, the IC50 is the concentration at which inhibition is half-maximal. Consider `CC(=O)CC(c1ccccc1)c1c(O)c2ccccc2oc1=O` (centres unmarked) [warfarin], for which the IC50 was 0.238 µM on hVKORL; 0.25 to 0.26 µM on purified TrVKORL (IC50 of warfarin, in presence of GSH, enzyme concentration 500 nM, KO or K); roughly 0.25 µM at purified TrVKORL (apparent IC50, GSH as reductant, 500 nM TrVKORL, K as substrate); roughly 0.26 µM on purified TrVKORL (apparent IC50, GSH as reductant, 500 nM TrVKORL, KO as substrate); 3.8 µM against purified TrVKORL (warfarin IC50, DTT as reductant, 500 nM enzyme, K as substrate); 4.7 µM against purified TrVKORL (warfarin IC50, DTT as reductant, 500 nM enzyme, KO as substrate). Also, the 50% inhibitory concentration (IC50) against purified hVKORL is 0.12 µM; in assay [2] it was 0.097 µM. The Ki on purified TrVKORL (Ki^app estimated from the Morrison equation, GSH, K as substrate, low enzyme concentration) is 0.029 µM. Further, the “warfarin inhibition (in words)” value in assay [1] is “poorly inhibited”.
Take `CC(=CCC12OC1(C)C(=O)c1ccccc1C2=O)CCCC(C)CCCC(C)CCCC(C)C` (centres unmarked) [KO, vitamin K epoxide]: on purified TrVKORL (TrVKORL, KO as substrate), the “decrease of KM with GSH reduction compared to DTT reduction” value came out at 3.4 fold.
